{"source": "patent US20230312652A1", "about": "“NOVEL PEPTIDES AND USES THEREOF” (Aarhus Universitet, priority 2020, published 2023)", "key": {"[1]": {"test": "Liver microsome stability, mouse", "format": "in vitro ADME", "settings": "2 μM, up to 60 minutes", "procedure": "Reactions were stopped at timepoints between 0-60 min. and samples analysed by LCMS."}, "[2]": {"test": "Mouse brain homogenate stability", "format": "in vitro ADME", "settings": "2 μM, read-out: T½ in brain homogenate", "procedure": "(§1) Mouse brain homogenate was incubated with 2 μM of P1 or 7-Ethoxycoumarin (positive control of degradation). Enzymatic reactions were stopped at timepoints between 0-240 min and samples analysed by LCMS. For test with protease inhibitors, brain homogenate was pre-incubated for 30 minutes with protease inhibitors prior to incubation with P1. For brain homogenate binding, 2 μM of P1 or propranolol (positive control) were added to mouse brain homogenate and incubated at 37° C. for 30 minutes. To prepare the protein-free samples (F samples) to be used for unbound determination, an aliquot of the pre-incubated matrix containing test compound or control compound was transferred to ultracentrifuge tubes and subjected to ultracentrifugation at 37° C., 35000 rpm for 4 hrs. In parallel, brain homogenate was incubated for 4.5 hrs to determine total levels after incubation."}, "CREB": {"system": "CREB", "test": "CREB activation in striatum and hippocampus of wild-type mice after IV injection", "format": "in vivo, mouse", "settings": "0.26 mg/kg IV, 1 hour after injection", "procedure": "To assess this, 8 weeks old wild-type mice were injected intravenously with either 0.26 mg/kg of peptide P1 or LP1 dissolved in saline. 1 hour after the injection, the mice were sacrificed by cervical dislocation and striatal tissue was isolated by dissection and immediately lysed using a TissueLyser in lysis buffer containing cOmplete and DTT. The samples were subsequently homogenized by sonication. The phosphorylation of CREB on serine 133 was subsequently validated by western blotting. The levels of phosphorylated CREB were normalized to the corresponding beta-actin levels. Student's t-test was used for statistical analysis."}, "[3]": {"test": "Mouse brain homogenate binding", "format": "in vitro ADME", "settings": "2 μM", "procedure": "as §1"}, "[4]": {"system": "HTT in GM01650E fibroblasts", "test": "Total HTT levels in fibroblasts from a healthy individual (GM01650E)", "format": "cell-based, human", "settings": "1 uM, healthy cell line, 2-4 hours", "procedure": "GM04719 was seeded at 30,000-50,000 per well in a 96-well. The following day, the cells were treated with 1 uM of P1 and incubated at 37° C. and 5% CO2 at timepoints 0-24 hours. Hereafter, the cells were lysed in RIPA lysis buffer containing cOmplete cocktail protease inhibitor. Total Huntingtin levels were analysed using antibody mab2166 (Sigma-Aldrich) by western blotting and normalized to beta-actin. To determine, whether P1 also clears the healthy allele, we further assessed levels of total HTT in fibroblast derived from a healthy individual (GM01650E), bought from Coriell Biobank."}, "[5]": {"test": "Plasma stability, human plasma", "format": "in vitro ADME", "settings": "2 μM, 37° C.", "procedure": "(§2) Mouse or human plasma were incubated with 2 μM of P1 (SEQ ID NO: 1) or propantheline bromide (positive control for degradation) and left at 37° C. At each time point, stop solution was added to precipitate the solution and after mixing and centrifugation, supernatant was used for LCMS analysis."}, "[6]": {"test": "Plasma stability, mouse plasma", "format": "in vitro ADME", "settings": "2 μM, 37° C.", "procedure": "as §2"}, "hERG potassium channels": {"biological_target": "T1, hERG potassium channels (Homo sapiens, UniProt Q12809)", "T1 construct": "expressed in transfected cells", "T1 sequence (Q12809 whole entry)": "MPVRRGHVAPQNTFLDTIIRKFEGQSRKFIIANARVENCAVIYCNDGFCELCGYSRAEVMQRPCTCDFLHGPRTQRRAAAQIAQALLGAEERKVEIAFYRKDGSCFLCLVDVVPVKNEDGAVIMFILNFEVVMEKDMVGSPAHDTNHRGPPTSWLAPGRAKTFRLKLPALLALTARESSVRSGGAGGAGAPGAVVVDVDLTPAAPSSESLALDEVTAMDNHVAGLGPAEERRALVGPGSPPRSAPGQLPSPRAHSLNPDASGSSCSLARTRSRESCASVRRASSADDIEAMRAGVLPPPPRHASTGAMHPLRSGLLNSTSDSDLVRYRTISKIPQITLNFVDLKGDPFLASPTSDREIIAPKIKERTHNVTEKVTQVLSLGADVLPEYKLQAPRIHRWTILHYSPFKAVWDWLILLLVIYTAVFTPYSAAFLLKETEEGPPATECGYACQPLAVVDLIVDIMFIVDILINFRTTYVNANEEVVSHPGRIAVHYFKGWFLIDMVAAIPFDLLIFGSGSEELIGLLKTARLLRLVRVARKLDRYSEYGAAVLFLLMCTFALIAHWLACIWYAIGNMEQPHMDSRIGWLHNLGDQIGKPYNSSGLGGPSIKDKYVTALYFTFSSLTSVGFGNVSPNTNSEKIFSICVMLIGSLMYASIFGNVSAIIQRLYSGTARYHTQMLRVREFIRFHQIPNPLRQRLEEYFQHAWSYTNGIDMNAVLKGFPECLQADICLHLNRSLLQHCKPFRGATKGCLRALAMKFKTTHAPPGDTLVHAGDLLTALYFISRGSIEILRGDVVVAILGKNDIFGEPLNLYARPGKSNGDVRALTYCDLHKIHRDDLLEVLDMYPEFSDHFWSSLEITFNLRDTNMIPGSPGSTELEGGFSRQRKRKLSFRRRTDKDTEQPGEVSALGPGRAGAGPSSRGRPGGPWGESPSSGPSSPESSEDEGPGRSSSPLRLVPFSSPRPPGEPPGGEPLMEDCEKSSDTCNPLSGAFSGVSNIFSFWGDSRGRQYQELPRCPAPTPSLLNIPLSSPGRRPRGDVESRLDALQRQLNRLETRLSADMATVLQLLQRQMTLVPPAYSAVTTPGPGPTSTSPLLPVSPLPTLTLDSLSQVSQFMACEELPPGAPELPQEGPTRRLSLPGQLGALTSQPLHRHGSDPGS", "test": "hERG inhibition, manual patch-clamp in CHO cell line", "format": "cell-based", "settings": "0.1-30 uM, room temperature", "procedure": "P1 (0.1-30 uM) was evaluated in vitro in a concentration-response (relationship of the effect on electric current passing through hERG (human ether-à-go-go-related gene) potassium channels (a surrogate for IKr, the rapidly activating, delayed rectifier cardiac potassium current) stably expressed in a CHO cell line using a manual patch-clamp technique.\nThe hERG current was recorded at room temperature using whole-cell patch-clamp techniques. Output signals from the patch-clamp amplifier were digitized and low-pass filtered at 2.9 kHz. The recording was controlled with Patchmaster Pro software. The recording chamber with cells seeded was mounted on an inverted microscope stage. A cell in the recording chamber was randomly picked up for testing. The cell was continuously perfused from the perfusion system. A micropipette filled with ICS was used as recording electrode in the manual patch-clamp study. The micropipette was prepared on the day of the patchclamp experiment using glass capillaries (GC150TF-10, Harvard Apparatus Co., UK). From the holding potential of −80 mV, the voltage was increased to +60 mV for 850 ms to open the hERG channels. After that, the voltage was decreased to −50 mV for 1275 ms, causing a “rebound” or tail current, the peak tail current was measured and collected for data analysis. Finally, the voltage was decreased to the holding potential (−80 mV). […]"}, "[7]": {"system": "R6/2 mice (mouse model of Huntington's)", "test": "Brain weight and activity studies in R6/2 mice (open field, clasping, rotarod)", "format": "in vivo", "settings": "13 mg/kg SC daily", "procedure": "The R6/2 mice were injected with a daily dose of 13 mg/kg of P1 subcutaneously in 4.38 mM L-His, 140 mM NaCl, 0.2% Tween-20 and 1500 IU hyaluronidase (pH 6.15) between 8 weeks to 12 weeks of age. At 12 weeks of age, mice were sacrificed and their brains removed and both hippocampus—cortex and striatal tissue was isolated and lysed in RIPA lysis buffer containing containing cOmplete and phosSTOP.\nPrior to treatment (8 weeks of age), the R6/2 mice were weighed and assessed for clasping and rotarod behavior before randomization to 4 cages of n=6 each (two cages pr treatment group). The experimenter remained blinded throughout the studies and data analysis. Motor coordination was measured by hind-limb clasping and rotarod between week 7-12.\nClasping: Mice were once weekly assessed for clasping behavior. Mice were placed on the top grid of a cage and then held by the tail and lifted over the top of the homecage for 10 successive trials of 3 seconds with 3 second rest intervals\nRotarod: Accelerating test—cylinder accelerates from 4 to 40 RPM in 5 minutes with linear speed progression. During the first week of training, mice undergo 3 trials per day for 3 consecutive days. During training sessions, mice receive “second changes” when falling from the rotarod. The following weeks, mice are tested on only one day for 3 consecutive trials. The mean latency to fall is used for data analysis.\nAt 11 weeks of age, mice were subjected to an open field consisting of a 40×40 cm box with transparent Plexiglas walls of 50 cm height. Their behaviour was recorded using an automated tracking software and camera (Anymaze, Havard apparatus). Distance travelled and number of rears were recorded over a 20 min. period.\nBrain weight: At 12 weeks of age, mice were sacrificed and the entire brain was carefully extracted and weighed using a fine-scale weigh."}, "[8]": {"settings": "11 weeks of age, 20 min, vs vehicle"}}, "note": "Where a SMILES comes first, the peptide text is derived from it."}
{"smiles": "CSCC[C@@H]1NC(=O)[C@H](C(C)C)NC(=O)[C@H](CC(=O)O)NC(=O)[C@H](CCC(=O)O)NC(=O)[C@H](CCC(=O)O)NC(=O)[C@H](Cc2c[nH]cn2)NC(=O)[C@H](CCC(=O)O)NC(=O)[C@H](C(C)C)NC(=O)[C@@H]2CCCN2C(=O)[C@H](CCC(=O)O)NC(=O)[C@H]([C@@H](C)O)NC1=O", "note": "[Peptide P1, [MTEPVEHEEDV]] (cyclo(MTEPVEHEEDV))", "values": [{"measurement": "clearance and stability in liver microsomes", "setting": "[1]", "value": "low clearance and high stability"}, {"measurement": "half-life", "setting": "[2]", "value": 4.08, "unit": "h"}, {"measurement": "pCREB (S133) in hippocampus", "setting": "CREB", "value": "performed markedly better than LP1"}, {"measurement": "pCREB (S133) in striatum", "setting": "CREB", "value": "performed markedly better than LP1"}, {"measurement": "brain homogenate binding", "setting": "[3]", "value": "less than 20%"}, {"measurement": "total HTT levels", "setting": "[4]", "value": "increasing the total HTT levels"}, {"measurement": "half-life", "setting": "[5]", "value": "> 4.82", "unit": "h"}, {"measurement": "half-life", "setting": "[6]", "value": "> 4.82", "unit": "h"}, {"measurement": "effect on hERG current", "setting": "hERG potassium channels", "value": "no effect on hERG current"}, {"measurement": "average increase of brain weight", "setting": "[7]; 8 to 12 weeks of age, at 12 weeks", "value": 14, "unit": "mg"}, {"measurement": "motor function, clasping", "setting": "[7]; week 8-12", "value": "tendency to improve motor functions"}, {"measurement": "motor function, rotarod", "setting": "[7]; week 8-12", "value": "tendency to improve motor functions"}, {"measurement": "distance travelled, open field", "setting": "[7]; [8]", "value": "significantly higher"}, {"measurement": "rearing frequency, open field", "setting": "[7]; [8]", "value": "significantly higher"}]}
